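48-hour exposure; five concentrations; linearly interpolated endpoints. TGI is the concentration that stops growth completely.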
Legend:
Test in all cases: NCI anticancer screen, dose series, 48 h
NCI/ADR-RES ovarian = system: NCI/ADR-RES ovarian
MDA-MB-231 breast = system: MDA-MB-231 breast
CCRF-CEM leukemia = system: CCRF-CEM leukemia
ACHN renal = system: ACHN renal
NCI-H226 lung = system: NCI-H226 lung
MALME-3M melanoma = system: MALME-3M melanoma
MCF7 breast = system: MCF7 breast
UACC-257 melanoma = system: UACC-257 melanoma
OVCAR-5 ovarian = system: OVCAR-5 ovarian
UO-31 renal = system: UO-31 renal
KM12 colon = system: KM12 colon
MDA-MB-435 = system: MDA-MB-435
MDA-N = system: MDA-N
RPMI-8226 leukemia = system: RPMI-8226 leukemia
IGROV1 ovarian = system: IGROV1 ovarian
HL-60(TB) leukemia = system: HL-60(TB) leukemia
UACC-62 melanoma = system: UACC-62 melanoma
COLO 205 colon = system: COLO 205 colon
NCI-H460 lung = system: NCI-H460 lung
HCT-116 colon = system: HCT-116 colon
RXF 393 renal = system: RXF 393 renal
SK-MEL-28 melanoma = system: SK-MEL-28 melanoma
K-562 leukemia = system: K-562 leukemia
786-0 renal = system: 786-0 renal
U251 CNS = system: U251 CNS
SK-OV-3 ovarian = system: SK-OV-3 ovarian
OVCAR-3 ovarian = system: OVCAR-3 ovarian
NCI-H23 lung = system: NCI-H23 lung
SF-539 CNS = system: SF-539 CNS
OVCAR-4 ovarian = system: OVCAR-4 ovarian
MOLT-4 leukemia = system: MOLT-4 leukemia
PC-3 prostate = system: PC-3 prostate
BT-549 breast = system: BT-549 breast
HS 578T breast = system: HS 578T breast
DU-145 prostate = system: DU-145 prostate
A549 NSCLC = system: A549 NSCLC
SNB-19 CNS = system: SNB-19 CNS
EKVX NSCLC = system: EKVX NSCLC
HOP-92 NSCLC = system: HOP-92 NSCLC
SW-620 colon = system: SW-620 colon
SN12C renal = system: SN12C renal
T-47D breast = system: T-47D breast
HOP-62 NSCLC = system: HOP-62 NSCLC
M14 melanoma = system: M14 melanoma
SF-268 CNS = system: SF-268 CNS
HT29 colon = system: HT29 colon
LOX IMVI melanoma = system: LOX IMVI melanoma
SK-MEL-5 melanoma = system: SK-MEL-5 melanoma
SK-MEL-2 melanoma = system: SK-MEL-2 melanoma
A498 renal = system: A498 renal
TK-10 renal = system: TK-10 renal
HCT-15 colon = system: HCT-15 colon
SR leukemia = system: SR leukemia
CAKI-1 renal = system: CAKI-1 renal
OVCAR-8 ovarian = system: OVCAR-8 ovarian
NCI-H522 lung = system: NCI-H522 lung
HCC-2998 colon = system: HCC-2998 colon
SF-295 CNS = system: SF-295 CNS

Work on `CCNc1nc(N)c(C(=O)c2ccc(Cl)cc2)s1` yielded a TGI (NCI/ADR-RES ovarian) greater than 100 µM, a TGI (MDA-MB-231 breast) greater than 100 µM and a TGI (CCRF-CEM leukemia) of 22.6 µM. The TGI (ACHN renal) was greater than 100 µM, the TGI (NCI-H226 lung) was 70.6 µM and the TGI (MALME-3M melanoma) was greater than 100 µM. The TGI (MCF7 breast) was greater than 100 µM, the TGI (UACC-257 melanoma) was greater than 100 µM and the TGI (OVCAR-5 ovarian) was greater than 100 µM. For the same compound, the TGI (UO-31 renal) was 40.2 µM, the TGI (KM12 colon) was greater than 100 µM and the TGI (MDA-MB-435) was greater than 100 µM. The TGI (MDA-N) was greater than 100 µM, the TGI (RPMI-8226 leukemia) was greater than 100 µM and the TGI (IGROV1 ovarian) was greater than 100 µM. The TGI (HL-60(TB) leukemia) was 36 µM, the TGI (UACC-62 melanoma) was greater than 100 µM and the TGI (COLO 205 colon) was 47 µM. It also gave a TGI (NCI-H460 lung) greater than 100 µM, a TGI (HCT-116 colon) greater than 100 µM and a TGI (RXF 393 renal) of 53.5 µM. It also gave a TGI (SK-MEL-28 melanoma) greater than 100 µM, a TGI (K-562 leukemia) greater than 100 µM and a TGI (786-0 renal) greater than 100 µM. For the same compound, the TGI (U251 CNS) was greater than 100 µM, the TGI (SK-OV-3 ovarian) was greater than 100 µM and the TGI (OVCAR-3 ovarian) was 65.4 µM. For the same compound, the TGI (NCI-H23 lung) was greater than 100 µM, the TGI (SF-539 CNS) was greater than 100 µM and the TGI (OVCAR-4 ovarian) was greater than 100 µM. It also gave a TGI (MOLT-4 leukemia) greater than 100 µM, a TGI (PC-3 prostate) greater than 100 µM and a TGI (BT-549 breast) greater than 100 µM. The TGI (HS 578T breast) was 36.9 µM, the TGI (DU-145 prostate) was greater than 100 µM and the TGI (A549 NSCLC) was 70.2 µM. For the same compound, the TGI (SNB-19 CNS) was 58.8 µM, the TGI (EKVX NSCLC) was 45.5 µM and the TGI (HOP-92 NSCLC) was greater than 100 µM. For the same compound, the TGI (SW-620 colon) was greater than 100 µM, the TGI (SN12C renal) was greater than 100 µM and the TGI (T-47D breast) was greater than 100 µM. It also gave a TGI (HOP-62 NSCLC) greater than 100 µM, a TGI (M14 melanoma) greater than 100 µM and a TGI (SF-268 CNS) greater than 100 µM. It also gave a TGI (HT29 colon) greater than 100 µM, a TGI (LOX IMVI melanoma) greater than 100 µM and a TGI (SK-MEL-5 melanoma) greater than 100 µM. The TGI (SK-MEL-2 melanoma) was greater than 100 µM, the TGI (A498 renal) was 70.3 µM and the TGI (TK-10 renal) was 54.4 µM. For the same compound, the TGI (HCT-15 colon) was greater than 100 µM.

`Nc1ccc2c(c1)C1Oc3ccccc3CC1CO2` (stereo not drawn) showed a TGI (NCI/ADR-RES ovarian) greater than 100 µM, a TGI (MDA-MB-231 breast) greater than 100 µM and a TGI (CCRF-CEM leukemia) greater than 100 µM. It also gave a TGI (NCI-H226 lung) greater than 100 µM, a TGI (MALME-3M melanoma) greater than 100 µM and a TGI (SR leukemia) greater than 100 µM. For the same compound, the TGI (MCF7 breast) was greater than 100 µM, the TGI (UACC-257 melanoma) was greater than 100 µM and the TGI (OVCAR-5 ovarian) was greater than 100 µM. For the same compound, the TGI (UO-31 renal) was greater than 100 µM, the TGI (CAKI-1 renal) was greater than 100 µM and the TGI (KM12 colon) was greater than 100 µM. It also gave a TGI (OVCAR-8 ovarian) greater than 100 µM, a TGI (MDA-MB-435) greater than 100 µM and a TGI (MDA-N) greater than 100 µM. It also gave a TGI (RPMI-8226 leukemia) greater than 100 µM, a TGI (IGROV1 ovarian) greater than 100 µM and a TGI (HL-60(TB) leukemia) greater than 100 µM. For the same compound, the TGI (NCI-H522 lung) was greater than 100 µM, the TGI (UACC-62 melanoma) was greater than 100 µM and the TGI (COLO 205 colon) was greater than 100 µM. It also gave a TGI (HCT-116 colon) greater than 100 µM, a TGI (K-562 leukemia) greater than 100 µM and a TGI (786-0 renal) greater than 100 µM. For the same compound, the TGI (U251 CNS) was greater than 100 µM, the TGI (SK-OV-3 ovarian) was greater than 100 µM and the TGI (OVCAR-3 ovarian) was greater than 100 µM. For the same compound, the TGI (NCI-H23 lung) was greater than 100 µM, the TGI (SF-539 CNS) was greater than 100 µM and the TGI (HCC-2998 colon) was greater than 100 µM. For the same compound, the TGI (MOLT-4 leukemia) was greater than 100 µM, the TGI (PC-3 prostate) was greater than 100 µM and the TGI (BT-549 breast) was greater than 100 µM. For the same compound, the TGI (DU-145 prostate) was greater than 100 µM, the TGI (A549 NSCLC) was greater than 100 µM and the TGI (EKVX NSCLC) was greater than 100 µM. For the same compound, the TGI (HOP-92 NSCLC) was greater than 100 µM, the TGI (SW-620 colon) was greater than 100 µM and the TGI (SF-295 CNS) was greater than 100 µM. For the same compound, the TGI (SN12C renal) was greater than 100 µM, the TGI (T-47D breast) was greater than 100 µM and the TGI (HOP-62 NSCLC) was greater than 100 µM. The TGI (M14 melanoma) was greater than 100 µM, the TGI (SF-268 CNS) was greater than 100 µM and the TGI (HT29 colon) was greater than 100 µM. For the same compound, the TGI (LOX IMVI melanoma) was greater than 100 µM, the TGI (SK-MEL-5 melanoma) was greater than 100 µM and the TGI (SK-MEL-2 melanoma) was greater than 100 µM. For the same compound, the TGI (A498 renal) was greater than 100 µM, the TGI (TK-10 renal) was greater than 100 µM and the TGI (HCT-15 colon) was 35.6 µM.

Source: PubChem BioAssay (NCI)
